Source: US20220202882A1, “EFFECT OF COMBINATION OF BIFIDOBACTERIUM AND BERBERINE ON PRE-DIABETES AND TYPE 2 DIABETES” (The Fourth Military Medical University, priority 2018, published 2022)
Counter-ions that a name gives are not always drawn.

Tested on: pre-diabetic and type 2 diabetes mellitus patients
Assay: Clinical trial: fasting plasma glucose (FPG)
Assay type: in vivo, human
Conditions: for Effect on fasting plasma glucose level (in words) / Post-treatment FPG - pre-treatment FPG, mean value: 16 weeks of treatment; for Effect on fasting plasma glucose level (in words): Kruskal-Wilcox test; for Post-treatment FPG - pre-treatment FPG, mean value / Post-treatment FPG, mean value / Pre-treatment FPG, mean value: FAS; for Post-treatment FPG, mean value: after 16 weeks of treatment; for Pre-treatment FPG, mean value: baseline before treatment
Method: From June 2015 to October 2018, a double-blind, randomized, and parallel-controlled trial, studying the effects of the combined use of Bifidobacterium and berberine on pre-diabetic and type 2 diabetes mellitus patients, was conducted in 10 research centers in Xi'an, Yan'an and Shangluo of Shaanxi province, etc., including the First Affiliated Hospital of the Fourth Military Medical University. 3) Diagnosed with impaired glucose tolerance or type 2 diabetes mellitus (5.6≤fasting plasma glucose (FPG)<8.0 mmol/L at V1 stage; 6.1≤fasting plasma glucose (FPG)<8.0<mmol/L or 7.8≤2-hour postprandial venous blood glucose (2 h-PPG)<17 mmol/L at V2 stage, please see V1 and V2 in Table 1 below); The trial included an enrollment stage of 2 weeks and a treatment stage of 16 weeks. After passing the first visit 1 (see V1 in Table 1), the subjects entered the enrollment stage, i.e., 2 weeks of lifestyle intervention, followed by a re-screening (see V2 in Table 1). The subjects were subjected to a 16-week course of treatment after passing the screening. See Table 1 for the detailed screening parameters. After the enrollment stage, the baseline data of the 300 successfully enrolled subjects were collected. Meanwhile, the subjects started to receive lifestyle guidance, and were randomly divided into four groups for 16 weeks of treatments. 1) Bifidobacterium group: the subjects were administered with Bifidobacterium capsules (Livzon Pharmaceutical Group Inc., batch no.: 20141013), 0.35 g/capsule, each capsule containing 50,000,000 viable bacteria (Bifidobacterium adolescentis DM8504), 2 capsules/time, 2 times/day, plus berberine placebo tablets (Northeast Pharma Group Shenyang First Pharma Co., Ltd., Lot no.: 20150101, containing 80.2% microcrystalline cellulose, 9.4% pregelatinized starch, 6.4% sodium carboxymethyl starch, 1% magnesium stearate, and 3% copovidone), 0.1 g/tablet, 5 tablets/time, 2 times/day. 2) Berberine group: the subjects were administered with berberine tablets (Northeast Pharma Group Shenyang First Pharma Co., Ltd., Lot no.: 130917, each tablet weighted 0.165 g and contained 0.1 g active berberine ingredient (berberine hydrochloride), with the same excipients as the placebo tablets), 5 tablets/time, 2 times/day, plus Bifidobacterium placebo capsules (Livzon Pharmaceutical Group Inc., Lot no.: 141001, specifically containing 0.348 g spray-dried lactose, and 0.002 g magnesium stearate), 0.35 g/capsule, 2 capsules/time, 2 times/day. 3) Combination Group: the subjects were administered with Bifidobacterium capsules, 0.35 g/capsule, each capsule containing 50,000,000 viable bacteria (B. adolescentis DM8504), 2 capsules/time, 2 times/day, plus berberine tablets, 0.1 g/tablet, each tablet containing 0.1 g active berberine ingredient (berberine hydrochloride), 5 tablets/time, 2 times/day. 4) Control group: the subjects were administered with Bifidobacteria placebo capsules, 0.35 g/capsule, 2 capsules/time, 2 times/day, plus berberine placebo tablets, 0.1 g/tablet, 5 tablets/time, 2 times/day. Bifidobacterium capsules were taken after meals and berberine tablets were taken before meals. After the sample testing was finished, 1) Chi-Squared test and t-test were used to evaluate the intergroup balance of the baseline data including the demographic characteristics and pre-treatment indicators, wherein the baseline data referred to those collected at the second visit, before the formal administration, the data collected at the first visit on the enrollment stage were used instead if the data at the second visit was lacking; 2) two-way disordered CM-CH11, Kruska-Wilcox test, etc. were used for analysis and intergroup comparison of pre- and post-treatment indicators such as fasting plasma glucose (FPG), HbA1c, plasma glucose at 2 hours post OGTT (2-h PPG), blood pressure, blood lipids, body weight and BMI; 3) adverse events and hypoglycemia events were described in terms of the type, frequency and relevance with the drugs, for safety evaluation. […]

| Molecule | Effect on fasting plasma glucose level (in words) | Post-treatment FPG - pre-treatment FPG, mean value | Post-treatment FPG, mean value | Pre-treatment FPG, mean value |
| --- | --- | --- | --- | --- |
| Bifidobacterium | no evident effect | 0.0282 mmol/L | 6.4300 mmol/L | 6.4000 mmol/L |
| COc1ccc2cc3[n+](cc2c1OC)CCc1cc2c(cc1-3)OCO2 [Berberine, berberine hydrochloride] | lowered the fasting plasma glucose level significantly | -0.2450 mmol/L | 6.1300 mmol/L | 6.4700 mmol/L |
